From ChEMBL document CHEMBL4649996, “Selective inhibition of BET bromodomains” (Nature, 2010)

Key:
Settings in all cases: Compound concentration 10.0 uM, Protein concentration 2.0 uM
[1] = target: Nuclear body protein SP140-like protein (Homo sapiens) (UniProt Q9H930)
[2] = target: Bromodomain-containing protein 2 (Homo sapiens) (UniProt P25440)
[3] = target: Bromodomain-containing protein 2 (Homo sapiens) (UniProt P25440); remark: listed apart in the source
[4] = target: Histone acetyltransferase KAT2B (Homo sapiens) (UniProt Q92831)
Histone acetyltransferase KAT2B (Homo sapiens), sequence (Q92831 whole entry, looked up): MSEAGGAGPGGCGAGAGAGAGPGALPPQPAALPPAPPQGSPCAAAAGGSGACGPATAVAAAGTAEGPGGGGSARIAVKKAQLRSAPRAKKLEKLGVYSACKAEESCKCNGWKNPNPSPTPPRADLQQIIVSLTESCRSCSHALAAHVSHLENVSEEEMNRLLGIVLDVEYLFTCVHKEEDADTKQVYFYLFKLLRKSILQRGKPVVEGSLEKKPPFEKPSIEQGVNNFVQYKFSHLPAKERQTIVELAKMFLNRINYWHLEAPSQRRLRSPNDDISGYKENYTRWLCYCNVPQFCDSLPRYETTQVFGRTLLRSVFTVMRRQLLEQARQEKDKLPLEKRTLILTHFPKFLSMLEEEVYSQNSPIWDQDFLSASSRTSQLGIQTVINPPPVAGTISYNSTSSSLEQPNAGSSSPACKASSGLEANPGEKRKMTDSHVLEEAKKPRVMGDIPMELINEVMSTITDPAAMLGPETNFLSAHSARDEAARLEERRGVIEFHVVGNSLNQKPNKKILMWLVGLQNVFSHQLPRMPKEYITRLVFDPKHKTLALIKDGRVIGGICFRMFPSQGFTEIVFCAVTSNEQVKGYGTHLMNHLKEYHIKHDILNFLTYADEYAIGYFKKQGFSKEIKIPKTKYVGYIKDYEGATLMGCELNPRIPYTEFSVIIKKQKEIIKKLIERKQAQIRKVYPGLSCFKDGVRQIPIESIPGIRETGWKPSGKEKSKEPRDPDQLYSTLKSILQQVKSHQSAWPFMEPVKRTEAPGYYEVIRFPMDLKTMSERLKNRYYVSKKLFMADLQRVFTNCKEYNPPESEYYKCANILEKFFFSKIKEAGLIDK

Bromodomain-containing protein 2 (Homo sapiens), sequence (P25440 whole entry, looked up): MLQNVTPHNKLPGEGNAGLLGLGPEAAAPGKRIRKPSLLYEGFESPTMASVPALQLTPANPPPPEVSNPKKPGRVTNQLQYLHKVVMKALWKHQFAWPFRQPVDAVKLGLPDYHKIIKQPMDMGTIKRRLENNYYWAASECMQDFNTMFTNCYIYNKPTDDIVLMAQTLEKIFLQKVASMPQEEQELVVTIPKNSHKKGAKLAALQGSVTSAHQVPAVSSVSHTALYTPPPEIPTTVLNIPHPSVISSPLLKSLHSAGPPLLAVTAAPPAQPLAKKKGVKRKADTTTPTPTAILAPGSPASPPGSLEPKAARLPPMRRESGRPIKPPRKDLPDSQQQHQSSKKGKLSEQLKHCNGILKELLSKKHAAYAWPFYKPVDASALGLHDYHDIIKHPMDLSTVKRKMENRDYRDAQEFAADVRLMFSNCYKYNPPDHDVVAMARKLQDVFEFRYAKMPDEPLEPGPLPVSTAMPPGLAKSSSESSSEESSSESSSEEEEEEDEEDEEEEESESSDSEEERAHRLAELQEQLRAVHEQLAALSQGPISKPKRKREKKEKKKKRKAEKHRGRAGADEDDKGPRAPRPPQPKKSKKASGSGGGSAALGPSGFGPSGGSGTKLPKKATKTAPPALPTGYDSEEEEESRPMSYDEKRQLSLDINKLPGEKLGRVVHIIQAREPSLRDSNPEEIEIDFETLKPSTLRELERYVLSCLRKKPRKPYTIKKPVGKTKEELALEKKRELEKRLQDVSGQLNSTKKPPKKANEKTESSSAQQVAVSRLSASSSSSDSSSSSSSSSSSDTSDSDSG
Nuclear body protein SP140-like protein (Homo sapiens), sequence (Q9H930 whole entry): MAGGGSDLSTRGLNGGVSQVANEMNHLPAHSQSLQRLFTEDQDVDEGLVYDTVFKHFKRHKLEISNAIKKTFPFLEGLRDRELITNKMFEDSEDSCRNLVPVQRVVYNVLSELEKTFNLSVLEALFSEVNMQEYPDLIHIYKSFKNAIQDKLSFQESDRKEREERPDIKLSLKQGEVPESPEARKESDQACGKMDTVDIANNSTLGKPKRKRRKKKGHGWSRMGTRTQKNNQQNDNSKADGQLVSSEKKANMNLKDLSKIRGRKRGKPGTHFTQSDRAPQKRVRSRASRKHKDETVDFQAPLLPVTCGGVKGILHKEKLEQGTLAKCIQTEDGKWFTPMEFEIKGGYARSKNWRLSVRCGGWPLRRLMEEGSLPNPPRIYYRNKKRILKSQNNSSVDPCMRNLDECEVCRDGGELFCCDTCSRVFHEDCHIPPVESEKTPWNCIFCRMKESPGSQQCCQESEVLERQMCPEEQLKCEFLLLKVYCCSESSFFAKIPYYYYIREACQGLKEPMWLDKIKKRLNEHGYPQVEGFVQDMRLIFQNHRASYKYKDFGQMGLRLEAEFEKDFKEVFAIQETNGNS

## Cc1sc2c(c1C)C(c1ccc(Cl)cc1)=N[C@@H](CC(=O)OC(C)(C)C)c1nnc(C)n1-2
[1]
  ΔTm: -0.07 °C
[2]
  ΔTm: 5.58 °C
[3]
  ΔTm: 8.16 °C
[4]
  ΔTm: 0.7 °C
